Test results taken from US12077503B2, “Substituted cyclic amides and their use as herbicides” (FMC CORPORATION, priority 2015, dated 2024).

What was measured:
Type in all cases: in vivo
[1] = test system: ducksalad (Heteranthera limosa); test: Test B flooded paddy test; conditions: Heteranthera limosa, 250 g ai/ha, Flood; 0 to 100 scale where 0 is no effect and 100 is complete control; read-out: Ducksalad plant response rating
Method in brief: (§1)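 Compound goes directly into floodwater once pots are flooded 3 cm above soil, targeting plants at two leaves; the water depth is then held for the test duration. Plants sit 13–15 d in a greenhouse and are rated visually, 100 denoting complete control.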

[2] = test system: sedge, umbrella (small-flower umbrella sedge, Cyperus difformis); test: Test B flooded paddy test; conditions: Cyperus difformis, 250 g ai/ha, Flood; 0 to 100 scale where 0 is no effect and 100 is complete control; read-out: Sedge, Umbrella plant response rating
Method in brief: as §1

rice (Oryra sativa) = test: Test B flooded paddy test; conditions: Oryza sativa, 250 g ai/ha, Flood; 0 to 100 scale where 0 is no effect and 100 is complete control; read-out: Rice plant response rating
Method in brief: as §1

[3] = test system: barnyardgrass (Echinochloa crus-galli); test: Test B flooded paddy test; conditions: Echinochloa crus-galli, 250 g ai/ha, Flood; 0 to 100 scale where 0 is no effect and 100 is complete control; read-out: Barnyardgrass plant response rating
Method in brief: as §1

[4] = test system: ryegrass, Italian (Italian ryegrass, Lolium multiflorum); test: Test A preemergence; conditions: Lolium multiflorum, pre-emergence, 240 h, Preemergence
Method in brief: (§2)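 Preemergence soil spray on seeded pots or post-emergence spray on 1–2 leaf plants, in loam–sand blend. Greenhouse ~10 d. Visual rating 0–100 against untreated plants.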

[5] = test system: giant foxtail (Setaria faberii); test: Test A preemergence; conditions: Setaria faberi, pre-emergence, 240 h, Preemergence
Method in brief: as §2

Kochia (Kochia scoparia) [6] = test: Test A preemergence; conditions: Bassia scoparia, pre-emergence, 240 h, Preemergence
Method in brief: as §2

[7] = test system: barnyardgrass (Echinochloa crus-galli); test: Test A preemergence; conditions: Echinochloa crus-galli, pre-emergence, 240 h, Preemergence
Method in brief: as §2

[8] = test system: pigweed (Amaranthus retroflexus); test: Test A preemergence; conditions: Amaranthus retroflexus, pre-emergence, 240 h, Preemergence
[9] = test system: ragweed (common ragweed, Ambrosia elatior); test: Test A preemergence; conditions: Ambrosia artemisiifolia, pre-emergence, 240 h, Preemergence
Method in brief: as §2

[10] = test system: ryegrass, Italian (Italian ryegrass, Lolium multiflorum); test: Test A postemergence; conditions: Lolium multiflorum, post-emergence, 240 h, Postemergence, read-out: Plant response rating, Ryegrass, Italian
Method in brief: as §2

[11] = test system: giant foxtail (Setaria faberii); test: Test A postemergence; conditions: Setaria faberi, post-emergence, 240 h, Postemergence, read-out: Plant response rating, Foxtail, Giant
Method in brief: as §2

corn (Zea mays) = test: Test A postemergence; conditions: Zea mays, post-emergence, 240 h, Postemergence
Method in brief: as §2

[12] = test system: blackgrass (Alopecurus myosuroides); test: Test A postemergence; conditions: Alopecurus myosuroides, post-emergence, 240 h, Postemergence, read-out: Plant response rating, Blackgrass
Method in brief: as §2

Kochia (Kochia scoparia) [13] = test: Test A postemergence; conditions: Bassia scoparia, post-emergence, 240 h, Postemergence, read-out: Plant response rating, Kochia
Method in brief: as §2

[14] = test system: wheat (Triticum aestivum); test: Test A postemergence; conditions: Triticum aestivum, post-emergence, 240 h, Postemergence, read-out: Plant response rating, Wheat
Method in brief: as §2

[15] = test system: Galium (catchweed bedstraw, Galium aparine); test: Test A postemergence; conditions: Galium, post-emergence, 240 h, Postemergence, read-out: Plant response rating, Galium
Method in brief: as §2

[16] = test system: barnyardgrass (Echinochloa crus-galli); test: Test A postemergence; conditions: Echinochloa crus-galli, post-emergence, 240 h, Postemergence, read-out: Plant response rating, Barnyardgrass
Method in brief: as §2

[17] = test system: pigweed (Amaranthus retroflexus); test: Test A postemergence; conditions: Amaranthus retroflexus, post-emergence, 240 h, Postemergence, read-out: Plant response rating, Pigweed
Method in brief: as §2

[18] = test system: ragweed (common ragweed, Ambrosia elatior); test: Test A postemergence; conditions: Ambrosia artemisiifolia, post-emergence, 240 h, Postemergence, read-out: Plant response rating, Ragweed
Method in brief: as §2

[19] = 125 g ai/ha, visual injury after approximately 10 d, 0 to 100 scale where 0 is no effect and 100 is complete control
[20] = 31 g ai/ha, visual injury after approx. 10 d, 0 to 100 scale, 0 no effect, 100 complete control

O=C(Nc1cccc(F)c1F)[C@H]1C(=O)N(O)CC[C@@H]1c1ccccc1 [Compound 1007]
0%: pest or weed control at 250 g/ha [1] | pest or weed control at 250 g/ha [2] | pest or weed control at 250 g/ha (rice (Oryra sativa)) | pest or weed control at 250 g/ha [3] | pest or weed control at 31 g/ha ([4]; 31 g ai/ha, 0 to 100 scale where 0 is no effect and 100 is complete control, read-out: Ryegrass, Italian plant response rating) | pest or weed control at 125 g/ha ([4]; 125 g ai/ha, visual injury rating after approximately 10 d, read-out: Ryegrass, Italian plant response rating (0 to 100 scale, 0 is no effect, 100 is complete control)) | pest or weed control at 125 g/ha ([5]; 125 g ai/ha, visual injury rating after approximately 10 d, read-out: Foxtail, Giant plant response rating (0 to 100 scale, 0 is no effect, 100 is complete control)) | pest or weed control at 31 g/ha ([5]; 31 g ai/ha, 0 to 100 scale (0 no effect, 100 complete control), read-out: Plant response rating, Foxtail, Giant) | pest or weed control at 31 g/ha (Kochia (Kochia scoparia) [6]; 31 g ai/ha, 0 to 100 scale where 0 is no effect and 100 is complete control, read-out: Kochia plant response rating) | pest or weed control at 125 g/ha (Kochia (Kochia scoparia) [6]; 125 g ai/ha, visual injury rating after approximately 10 d, read-out: Kochia plant response rating (0 to 100 scale, 0 is no effect, 100 is complete control)) | pest or weed control at 125 g/ha ([7]; 125 g ai/ha, visual injury rating after approximately 10 d, read-out: Barnyardgrass plant response rating (0 to 100 scale, 0 is no effect, 100 is complete control)) | pest or weed control at 31 g/ha ([7]; 31 g ai/ha, 0 to 100 scale (0 no effect, 100 complete control), read-out: Plant response rating, Barnyardgrass) | pest or weed control at 31 g/ha ([8]; 31 g ai/ha, 0 to 100 scale where 0 is no effect and 100 is complete control, read-out: Pigweed plant response rating) | pest or weed control at 125 g/ha ([8]; 125 g ai/ha, visual injury rating after approximately 10 d, read-out: Pigweed plant response rating (0 to 100 scale, 0 is no effect, 100 is complete control)) | pest or weed control at 31 g/ha ([9]; 31 g ai/ha, 0 to 100 scale where 0 is no effect and 100 is complete control, read-out: Ragweed plant response rating) | pest or weed control at 125 g/ha ([9]; 125 g ai/ha, visual injury rating after approximately 10 d, read-out: Ragweed plant response rating (0 to 100 scale, 0 is no effect, 100 is complete control)) | pest or weed control at 125 g/ha [10, 19] | pest or weed control at 31 g/ha [10, 20] | pest or weed control at 125 g/ha [11, 19] | pest or weed control at 31 g/ha [11, 20] | Corn plant response rating (crop injury, 0 = no effect, 100 = complete kill) at 125 g/ha (corn (Zea mays); [19]) | Corn plant response rating (crop injury, 0 = no effect, 100 = complete kill) at 31 g/ha (corn (Zea mays); [20]) | pest or weed control at 125 g/ha [12, 19] | pest or weed control at 31 g/ha [12, 20] | pest or weed control at 125 g/ha (Kochia (Kochia scoparia) [13]; [19]) | pest or weed control at 31 g/ha (Kochia (Kochia scoparia) [13]; [20]) | plant injury at 125 g/ha [14, 19] | plant injury at 31 g/ha [14, 20] | pest or weed control at 125 g/ha [15, 19] | pest or weed control at 31 g/ha [15, 20] | pest or weed control at 125 g/ha [16, 19] | pest or weed control at 31 g/ha [16, 20] | pest or weed control at 125 g/ha [17, 19] | pest or weed control at 31 g/ha [17, 20] | pest or weed control at 125 g/ha [18, 19] | pest or weed control at 31 g/ha [18, 20]
